{"source": "patent US6203817A", "about": "(priority 1998, dated 2001)", "key": {"[1]": {"experiment": "Critical micelle concentration (CMC) in water", "assay_type": "physicochemical", "excerpt": "According to this embodiment, the salt form is selected by measuring its CMC in water by methods known in the art, for example, by the use of a surface tensiometer. […] The CMC provides a measure of the surface activity of the particular drug salt."}, "[2]": {"system": "skin of hairless guinea pigs", "experiment": "Urinary excretion kinetics / skin depot of fluoxetine", "assay_type": "in vivo, hairless guinea pig", "source_text": "(§1) Skin sites on hairless guinea pigs were lightly washed."}, "[3]": {"conditions": "cited from earlier work"}, "[4]": {"system": "skin of hairless guinea pigs", "experiment": "Paroxetine gels skin irritation at equivalent flux", "assay_type": "in vivo, hairless guinea pig", "conditions": "FIG. 8", "source_text": "as §1\nAll paroxetine gels contained paroxetine base, 40% ethanol, 35% propylene glycol, water, and 5% HPMC. Placebo gels were identical with water replacing the paroxetine. Paroxetine acetate gels contained paroxetine base, acetic acid, water, and 2% HEC. […] All paroxetine gels contained approximately 28 μCi ^3 H paroxetine per ml."}}, "data": [{"smiles": "CN(C)CCCN1c2ccccc2Sc2ccc(Cl)cc21", "note": "[chlorpromazine acetate]", "values": [{"measurement": "CMC", "setting": "[1]", "result": 0.02, "unit": "M"}]}, {"smiles": "CNCCC(Oc1ccc(C(F)(F)F)cc1)c1ccccc1", "note": "(centres unmarked) [fluoxetine acetate]", "values": [{"measurement": "skin depot (urinary excretion)", "setting": "[2]; acidified with excess acetic acid to pH 5", "result": "the skin depot is eliminated"}, {"measurement": "kinetics of elimination (urinary excretion)", "setting": "[2]; acidified with excess acetic acid to pH 5, compared with intravenous administration", "result": "close to that observed following intravenous administration of the drug"}, {"measurement": "skin depot (urinary excretion)", "setting": "[2]; fluoxetine acetate, pH 6.5", "result": "the skin depot is reduced but is still present"}, {"measurement": "CMC", "setting": "[1]", "result": 0.05, "unit": "M"}]}, {"smiles": "CNCCC(Oc1ccc(C(F)(F)F)cc1)c1ccccc1", "note": "(centres unmarked) [fluoxetine base, fluoxetine]", "values": [{"measurement": "skin depot (urinary excretion)", "setting": "[2]; fluoxetine base", "result": "a skin depot is observed"}, {"measurement": "pKa", "setting": "[3]", "result": 9.7}]}, {"smiles": "Fc1ccc([C@@H]2CCNC[C@H]2COc2ccc3c(c2)OCO3)cc1", "note": "[paroxetine acetate]", "values": [{"measurement": "irritation vs paroxetine base gels at equivalent flux", "setting": "[4]", "result": "reduced"}]}]}
